Measured values as given in paper PMC9310613, “Selenocarbamates As a Prodrug‐Based Approach to Carbonic Anhydrase Inhibition” (Chemmedchem, 2022).
Where two headings read alike, the source gives them in different places.

What was measured:
Test in all cases: stopped-flow CO2 hydration assay
Format in all cases: biochemical
hCA II [1] = biological target: T1, hCA II (Homo sapiens, UniProt P00918)
T1 construct: gene CA2; recombinant, obtained in house
From the text: stopped-flow CO2 hydration assay on hCA II

hCA I = biological target: T2, hCA I (Homo sapiens, UniProt P00915)
T2 construct: gene CA1; recombinant, obtained in house
From the text: stopped-flow CO2 hydration assay on hCA I

hCA II [2] = biological target: T1, hCA II; settings: read-out: hCA I

T2 sequence (P00915 2-261): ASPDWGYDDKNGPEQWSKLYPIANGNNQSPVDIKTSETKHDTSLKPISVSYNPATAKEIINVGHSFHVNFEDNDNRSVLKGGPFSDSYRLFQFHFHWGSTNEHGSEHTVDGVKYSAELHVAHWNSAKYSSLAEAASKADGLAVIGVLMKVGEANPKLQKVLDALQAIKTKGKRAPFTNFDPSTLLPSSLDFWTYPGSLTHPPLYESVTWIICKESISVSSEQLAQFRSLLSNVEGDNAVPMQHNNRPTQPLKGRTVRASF

Compound | Ki (hCA II [1]) | Ki (hCA I) | Ki (hCA II [2])
NC(=O)[Se]c1ccccc1 [3j, 1‐(phenylselanyl)formamide] | 6.8 µM | 9.8 µM | 
O=C(NCc1ccco1)[Se]c1ccccc1 [3i, 3 i] | 40.4 µM | 8.8 µM | 
O=C(Nc1ccccc1)[Se]c1ccccc1 [3b, 3 b] | 4.1 µM | 40.4 µM | 
CCCCCCCCCCCC[Se]C(N)=O [3n, 3 n] | 85.2 µM | 90.3 µM | 
COc1cccc(NC(=O)[Se]c2ccccc2)c1 [3d, 3 d] | 7.9 µM | 49.3 µM | 
O=C(Nc1ccc(Br)cc1)[Se]Cc1ccccc1 [3p, 3 p] | 39.9 µM | 85 µM | 
Cc1ccc(NC(=O)[Se]c2ccccc2)cc1 [3c, 3 c] | 8.4 µM | 25.9 µM | 
CC(C)OCC(O)C[Se]C(=O)NC12CC3CC(CC(C3)C1)C2 (racemic) [3r, 3 r] | 79.4 µM | 92.7 µM | 
O=C(Nc1ccc(Cl)cc1)[Se]c1ccccc1 [3g, 3 g] | 13.1 µM | 42.5 µM | 
C=CCOCC(O)C[Se]C(=O)Nc1cc(C)cc(C)c1 (racemic) [3q, 3 q] | 79.3 µM | 67.5 µM | 
Cc1ccc(S(=O)(=O)N[C@@H](C)C[Se]C(=O)Nc2cc(C)cc(C)c2)cc1 [3u, 3 u] |  | > 100 µM | > 100 µM
CCCCCCCCCCCC[Se]C(=O)Nc1ccc(Br)cc1 [3m, 3 m] | 87.4 µM | 92.1 µM | 
O=C(Nc1ccc(F)cc1)[Se]c1ccccc1 [3f, 3 f] | 9.4 µM | 15.3 µM | 
O=C(NCc1ccco1)[Se][C@@H]1CCCC[C@H]1O (relative stereo) [3t, 3 t] | 83.4 µM | 67.4 µM | 
Cc1ccc([Se]C(=O)Nc2ccc(Br)cc2)cc1 [3k, 3 k] | 11.6 µM | 38.6 µM | 
Cc1cc(C)cc(NC(=O)[Se]c2ccccc2)c1 [3a, 3 a] | 5.3 µM | 49.5 µM | 
O=C(Nc1ccccc1F)[Se]c1ccccc1 [3e, 3 e] | 9.2 µM | 30.8 µM | 
O=C(Nc1ccc(Br)cc1)[Se]c1ccccc1 [3h, 3 h] | 8.6 µM | 13.8 µM | 
Cc1cc(C)cc(NC(=O)[Se][C@@H]2CCCC[C@H]2O)c1 (relative stereo) [3s, 3 s] | 84.6 µM | 74.3 µM | 
Cc1ccccc1[Se]C(=O)Nc1ccc(Br)cc1 [3l, 3 l] | 8 µM | 13.4 µM | 
